Results published in DBAASP.
In brackets after ≈: the same amount, converted by molar mass.

Columns and labels:
Test in all cases: ≥ marks a high value that may be exact or a test limit, other limits are often not marked, values filed in µg/mL are converted to µM
[1] = system: Enterococcus faecium
[2] = system: Serratia marcescens
[3] = system: Acinetobacter baumannii
[4] = system: Staphylococcus aureus
[5] = system: Staphylococcus aureus MR
[6] = system: Klebsiella pneumoniae
[7] = system: Escherichia coli
[8] = system: Pseudomonas aeruginosa
[9] = system: Enterococcus faecalis
[10] = system: Streptococcus pneumoniae
[11] = system: Stenotrophomonas maltophilia
[12] = system: Pseudomonas aeruginosa H188
[13] = system: Pseudomonas aeruginosa ATCC 27853
[14] = system: Escherichia coli DH5alpha
[15] = system: Escherichia coli ATCC 25922
[16] = system: Escherichia coli NCTC 10418
[17] = system: Staphylococcus aureus ATCC 12493
[18] = system: Candida albicans NCTC 1467
[19] = system: Enterococcus faecalis NCTC 12697
[20] = system: Staphylococcus aureus NCTC 10788
[21] = system: Salmonella enterica subsp. enterica serovar Typhimurium C77-31
[22] = system: Pseudomonas aeruginosa CICC 21625
[23] = system: Escherichia coli UB1005
[24] = system: Escherichia coli K88
[25] = system: Pseudomonas aeruginosa PAO1
[26] = system: Escherichia coli K99
[27] = system: Pseudomonas aeruginosa CICC 21630
[28] = system: Salmonella enterica subsp. enterica serovar Typhimurium ATCC 14028
[29] = system: Salmonella enterica subsp. enterica serovar Pullorum C79-13

| SMILES | MIC [3] | MIC [6] | MIC [7] | MIC [8] | MIC [12] | MIC [13] | MIC [14] | MIC [15] | MIC [16] | MIC [17] | MIC [18] | MIC [19] | MIC [20] | also measured |
| --- | --- | --- | --- | --- | --- | --- | --- | --- | --- | --- | --- | --- | --- | --- |
| CC[C@H](C)[C@H](NC(=O)[C@H](CC(C)C)NC(=O)CNC(=O)[C@H](CO)NC(=O)[C@@H](NC(=O)[C@H](CC(C)C)NC(=O)[C@@H](N)CC(N)=O)C(C)C)C(=O)N[C@@H](CCC(=O)O)C(=O)N[C@@H](C)C(=O)N[C@@H](CCCN=C(N)N)C(=O)N[C@@H](CCCCN)C(=O)N[C@@H](Cc1ccc(O)cc1)C(=O)N[C@@H](CC(C)C)C(=O)N[C@@H](CCC(=O)O)C(=O)N[C@@H](CCC(N)=O)C(=O)N[C@@H](CC(C)C)C(=O)N[C@@H](Cc1cnc[nH]1)C(=O)N[C@@H](CCCN=C(N)N)C(=O)N[C@@H](CCCCN)C(=O)N[C@@H](CC(C)C)C(=O)N[C@@H](CCCCN)C(=O)N[C@@H](CC(N)=O)C(=O)N[C@@H](CS)C(=O)N[C@@H](CCCCN)C(=O)N[C@H](C(=O)O)C(C)C [NLVSGLIEARKYLEQLHRKLKNCKV] | 15.3 µM (≈ 45.3 µg/mL) | 3.84 µM (≈ 11.3 µg/mL) | 2.71 µM (≈ 8.02 µg/mL) | 15.3 µM (≈ 45.3 µg/mL) | – | – | – | – | – | – | – | – | – | MIC [1]: 10.8 µM (≈ 32 µg/mL); MIC [2]: 7.65 µM (≈ 22.6 µg/mL); MIC [4]: 3.84 µM (≈ 11.3 µg/mL); MIC [5]: 3.84 µM (≈ 11.3 µg/mL); MIC [9]: 3.84 µM (≈ 11.3 µg/mL); MIC [10]: 3.84 µM (≈ 11.3 µg/mL); MIC [11]: 10.8 µM (≈ 32 µg/mL) |
| CC[C@H](C)[C@H](NC(=O)[C@H](CCCCN)NC(=O)[C@H](CCCCN)NC(=O)[C@H](C)NC(=O)[C@@H](NC(=O)[C@H](C)NC(=O)[C@H](CC(C)C)NC(=O)[C@H](CC(C)C)NC(=O)[C@H](C)NC(=O)[C@H](CCCCN)NC(=O)[C@H](CC(C)C)NC(=O)[C@H](CC(N)=O)NC(=O)[C@H](CC(C)C)NC(=O)[C@H](CCCN=C(N)N)NC(=O)[C@H](CCCN=C(N)N)NC(=O)[C@H](CCCN=C(N)N)NC(=O)[C@H](CCC(N)=O)NC(=O)[C@H](CCCN=C(N)N)NC(=O)[C@H](CCCN=C(N)N)NC(=O)[C@H](CCCCN)NC(=O)[C@H](CCCCN)NC(=O)[C@@H](N)CCCN=C(N)N)C(C)C)C(=O)N[C@@H](CC(C)C)C(N)=O [RKKRRQRRRLNLKALLAVAKKIL] | – | – | – | – | – | 4 µM (≈ 11.3 µg/mL) | – | – | 2 µM (≈ 5.66 µg/mL) | 4 µM (≈ 11.3 µg/mL) | 2 µM (≈ 5.66 µg/mL) | 8 µM (≈ 22.6 µg/mL) | 4 µM (≈ 11.3 µg/mL) | – |
| CC[C@H](C)[C@H](NC(=O)CN)C(=O)N[C@@H](CCSC)C(=O)N[C@@H](CC(=O)O)C(=O)N[C@H](C(=O)N[C@H](C(=O)N[C@@H](CCCCN)C(=O)N[C@@H](CC(N)=O)C(=O)N[C@@H](C)C(=O)N[C@@H](C)C(=O)N[C@@H](CCCCN)C(=O)N[C@@H](CC(N)=O)C(=O)N[C@@H](CC(C)C)C(=O)N[C@@H](C)C(=O)NCC(=O)N[C@@H](CCC(N)=O)C(=O)N[C@@H](CC(C)C)C(=O)N[C@@H](CC(C)C)C(=O)N[C@@H](CC(=O)O)C(=O)N[C@@H](CCCCN)C(=O)N[C@@H](CC(C)C)C(=O)N[C@@H](CCCCN)C(=O)O)C(C)C)[C@@H](C)O [GIMDTVKNAAKNLAGQLLDKLK] | – | – | – | – | – | > 512 µM | – | – | ≥ 128 µM | ≥ 512 µM | ≥ 512 µM | ≥ 512 µM | ≥ 256 µM | – |
| CC(C)[C@H](N)C(=O)N[C@@H](CCCN=C(N)N)C(=O)N1CCC[C@H]1C(=O)N[C@H](C(=O)N[C@H](C(=O)N[C@@H](CCCN=C(N)N)C(=O)N1CCC[C@H]1C(=O)N[C@H](C(=O)N[C@H](C(=O)N[C@@H](CCCN=C(N)N)C(=O)N1CCC[C@H]1C(=O)N[C@H](C(=O)N[C@H](C(=O)N[C@@H](CCCN=C(N)N)C(=O)N1CCC[C@H]1C(=O)N[C@H](C(=O)N[C@H](C(=O)N[C@@H](CCCN=C(N)N)C(=O)N1CCC[C@H]1C(=O)N[C@H](C(=O)N[C@H](C(=O)N[C@@H](CCCN=C(N)N)C(=O)N1CCC[C@H]1C(=O)N[C@H](C(N)=O)C(C)C)C(C)C)C(C)C)C(C)C)C(C)C)C(C)C)C(C)C)C(C)C)C(C)C)C(C)C)C(C)C [VRPVVRPVVRPVVRPVVRPVVRPV] | 4 µM (≈ 10.9 µg/mL) | > 64 µM | 64 µM (≈ 174 µg/mL) | > 64 µM | – | > 64 µM | – | 64 µM (≈ 174 µg/mL) | – | – | – | – | – | MIC [21]: ≥ 32 µM; MIC [22]: ≥ 64 µM; MIC [23]: ≥ 32 µM; MIC [24]: 8 µM (≈ 21.8 µg/mL); MIC [25]: > 64 µM; MIC [26]: 16 µM (≈ 43.6 µg/mL); MIC [27]: ≥ 64 µM; MIC [28]: 16 µM (≈ 43.6 µg/mL); MIC [29]: 8 µM (≈ 21.8 µg/mL) |

Continued, in another order:

| MIC [3] | MIC [6] | MIC [7] | MIC [8] | MIC [12] | MIC [13] | MIC [14] | MIC [15] | SMILES | MIC [16] | MIC [17] | MIC [18] | MIC [19] | MIC [20] | also measured |
| --- | --- | --- | --- | --- | --- | --- | --- | --- | --- | --- | --- | --- | --- | --- |
| – | – | 2.69 µM (≈ 8.11 µg/mL) | – | 5.37 µM (≈ 16.2 µg/mL) | 10.7 µM (≈ 32.4 µg/mL) | 5.37 µM (≈ 16.2 µg/mL) | 10.7 µM (≈ 32.4 µg/mL) | CC[C@H](C)[C@H](NC(=O)[C@H](C)NC(=O)[C@H](CCCCN)NC(=O)[C@H](CC(C)C)NC(=O)[C@H](C)NC(=O)[C@@H](NC(=O)[C@H](Cc1cnc[nH]1)NC(=O)[C@H](CC(C)C)NC(=O)[C@H](CCCCN)NC(=O)[C@@H](NC(=O)[C@H](CCCCN)NC(=O)[C@H](CCCCN)NC(=O)[C@H](C)NC(=O)[C@H](CO)NC(=O)[C@H](CCCCN)NC(=O)[C@H](Cc1ccccc1)NC(=O)[C@@H](NC(=O)[C@H](CCCCN)NC(=O)[C@H](CC(C)C)NC(=O)[C@H](Cc1ccccc1)NC(=O)[C@H](CO)NC(=O)[C@H](CCCCN)NC(=O)[C@H](Cc1c[nH]c2ccccc12)NC(=O)[C@H](CCCCN)NC(C)=O)[C@@H](C)O)[C@@H](C)O)[C@@H](C)O)C(=O)N[C@@H](CO)C(=O)N[C@@H](CO)C(N)=O [KWKSFLKTFKSAKKTKLHTALKAISS] | – | – | – | – | – | – |
| – | – | 5.45 µM (≈ 16.2 µg/mL) | – | 1.36 µM (≈ 4.06 µg/mL) | 10.9 µM (≈ 32.4 µg/mL) | 2.72 µM (≈ 8.11 µg/mL) | 2.72 µM (≈ 8.11 µg/mL) | CC[C@H](C)[C@H](NC(=O)[C@H](C)NC(=O)[C@H](CCCCN)NC(=O)[C@H](CC(C)C)NC(=O)[C@H](C)NC(=O)[C@@H](NC(=O)[C@H](Cc1cnc[nH]1)NC(=O)[C@H](CC(C)C)NC(=O)[C@H](CO)NC(=O)[C@@H](NC(=O)[C@H](CCCCN)NC(=O)[C@H](CCCCN)NC(=O)[C@H](C)NC(=O)[C@H](CO)NC(=O)[C@H](CCCCN)NC(=O)[C@H](Cc1ccccc1)NC(=O)[C@@H](NC(=O)[C@H](CCCCN)NC(=O)[C@H](CC(C)C)NC(=O)[C@H](Cc1ccccc1)NC(=O)[C@H](CO)NC(=O)[C@H](CCCCN)NC(=O)[C@H](Cc1c[nH]c2ccccc12)NC(=O)[C@H](CCCCN)NC(C)=O)[C@@H](C)O)[C@@H](C)O)[C@@H](C)O)C(=O)N[C@@H](CO)C(=O)N[C@@H](CO)C(N)=O [KWKSFLKTFKSAKKTSLHTALKAISS] | – | – | – | – | – | – |
